O=C(Nc1ccc(Oc2ccnc3c2CCN3)c(F)c1)c1c[nH]cc(-c2ccc(F)cc2)c1=O
TRAE Urinary retention, any grade (400 mg BID (n=4)): 0 n (%) | TRAE Urinary retention, grade 3-4 (400 mg BID (n=4)): 0 n (%) | TRAE Urinary tract infection, any grade (400 mg BID (n=4)): 0 n (%) | TRAE Urinary tract infection, grade 3-4 (400 mg BID (n=4)): 0 n (%) | TRAE Ventricular arrhythmia, any grade (400 mg BID (n=4)): 0 n (%) | TRAE Ventricular arrhythmia, grade 3-4 (400 mg BID (n=4)): 0 n (%) | TRAE Ventricular extrasystoles, any grade (400 mg BID (n=4)): 0 n (%) | TRAE Ventricular extrasystoles, grade 3-4 (400 mg BID (n=4)): 0 n (%) | TRAE Vomiting, any grade (400 mg BID (n=4)): 1 (25.0) n (%) | TRAE Vomiting, grade 3-4 (400 mg BID (n=4)): 0 n (%) | TRAE Weight loss, any grade (400 mg BID (n=4)): 0 n (%) | TRAE Weight loss, grade 3-4 (400 mg BID (n=4)): 0 n (%) | TRAE Accessory nerve disorder, any grade (450 mg QD (n=12)): 0 n (%) | TRAE Accessory nerve disorder, grade 3-4 (450 mg QD (n=12)): 0 n (%) | TRAE Activated partial thromboplastin time prolonged, any grade (450 mg QD (n=12)): 1 (8.3) n (%) | TRAE Activated partial thromboplastin time prolonged, grade 3-4 (450 mg QD (n=12)): 0 n (%) | TRAE Anaemia, any grade (450 mg QD (n=12)): 1 (8.3) n (%) | TRAE Anaemia, grade 3-4 (450 mg QD (n=12)): 1 (8.3) n (%) | TRAE Anaesthesia oral, any grade (450 mg QD (n=12)): 0 n (%) | TRAE Anaesthesia oral, grade 3-4 (450 mg QD (n=12)): 0 n (%) | TRAE Arrhythmia, any grade (450 mg QD (n=12)): 0 n (%) | TRAE Arrhythmia, grade 3-4 (450 mg QD (n=12)): 0 n (%) | TRAE Arthralgia, any grade (450 mg QD (n=12)): 1 (8.3) n (%) | TRAE Arthralgia, grade 3-4 (450 mg QD (n=12)): 0 n (%) | TRAE Asthenia, any grade (450 mg QD (n=12)): 2 (16.7) n (%) | TRAE Asthenia, grade 3-4 (450 mg QD (n=12)): 0 n (%) | TRAE Blister, any grade (450 mg QD (n=12)): 1 (8.3) n (%) | TRAE Blister, grade 3-4 (450 mg QD (n=12)): 0 n (%) | TRAE Chest discomfort, any grade (450 mg QD (n=12)): 0 n (%) | TRAE Chest discomfort, grade 3-4 (450 mg QD (n=12)): 0 n (%) | TRAE Chronic kidney disease, any grade (450 mg QD (n=12)): 1 (8.3) n (%) | TRAE Chronic kidney disease, grade 3-4 (450 mg QD (n=12)): 0 n (%) | TRAE Constipation, any grade (450 mg QD (n=12)): 5 (41.7) n (%) | TRAE Constipation, grade 3-4 (450 mg QD (n=12)): 0 n (%) | TRAE Cough, any grade (450 mg QD (n=12)): 0 n (%) | TRAE Cough, grade 3-4 (450 mg QD (n=12)): 0 n (%) | TRAE Decreased Ccr, any grade (450 mg QD (n=12)): 2 (16.7) n (%) | TRAE Decreased Ccr, grade 3-4 (450 mg QD (n=12)): 0 n (%) | TRAE Decreased appetite, any grade (450 mg QD (n=12)): 2 (16.7) n (%) | TRAE Decreased appetite, grade 3-4 (450 mg QD (n=12)): 0 n (%) | TRAE Diarrhoea, any grade (450 mg QD (n=12)): 1 (8.3) n (%) | TRAE Diarrhoea, grade 3-4 (450 mg QD (n=12)): 0 n (%) | TRAE Dizziness, any grade (450 mg QD (n=12)): 0 n (%) | TRAE Dizziness, grade 3-4 (450 mg QD (n=12)): 0 n (%) | TRAE Dry mouth, any grade (450 mg QD (n=12)): 2 (16.7) n (%) | TRAE Dry mouth, grade 3-4 (450 mg QD (n=12)): 0 n (%) | TRAE Dysgeusia, any grade (450 mg QD (n=12)): 3 (25.0) n (%) | TRAE Dysgeusia, grade 3-4 (450 mg QD (n=12)): 0 n (%) | TRAE Dyskinesia, any grade (450 mg QD (n=12)): 0 n (%) | TRAE Dyskinesia, grade 3-4 (450 mg QD (n=12)): 0 n (%) | TRAE Dysphonia, any grade (450 mg QD (n=12)): 0 n (%) | TRAE Dysphonia, grade 3-4 (450 mg QD (n=12)): 0 n (%) | TRAE Dyspnoea, any grade (450 mg QD (n=12)): 0 n (%) | TRAE Dyspnoea, grade 3-4 (450 mg QD (n=12)): 0 n (%) | TRAE Electrocardiogram QT prolonged, any grade (450 mg QD (n=12)): 0 n (%) | TRAE Electrocardiogram QT prolonged, grade 3-4 (450 mg QD (n=12)): 0 n (%) | TRAE Elevated ALT, any grade (450 mg QD (n=12)): 5 (41.7) n (%) | TRAE Elevated ALT, grade 3-4 (450 mg QD (n=12)): 0 n (%) | TRAE Elevated AST, any grade (450 mg QD (n=12)): 5 (41.7) n (%) | TRAE Elevated AST, grade 3-4 (450 mg QD (n=12)): 0 n (%) | TRAE Elevated D dimer, any grade (450 mg QD (n=12)): 0 n (%) | TRAE Elevated D dimer, grade 3-4 (450 mg QD (n=12)): 0 n (%) | TRAE Elevated GGT, any grade (450 mg QD (n=12)): 0 n (%) | TRAE Elevated GGT, grade 3-4 (450 mg QD (n=12)): 0 n (%) | TRAE Elevated LDH, any grade (450 mg QD (n=12)): 0 n (%) | TRAE Elevated LDH, grade 3-4 (450 mg QD (n=12)): 0 n (%) | TRAE Elevated alpha-HBDH, any grade (450 mg QD (n=12)): 0 n (%) | TRAE Elevated alpha-HBDH, grade 3-4 (450 mg QD (n=12)): 0 n (%) | TRAE Elevated bilirubin, any grade (450 mg QD (n=12)): 0 n (%) | TRAE Elevated bilirubin, grade 3-4 (450 mg QD (n=12)): 0 n (%) | TRAE Elevated blood creatinine, any grade (450 mg QD (n=12)): 2 (16.7) n (%) | TRAE Elevated blood creatinine, grade 3-4 (450 mg QD (n=12)): 0 n (%) | TRAE Elevated creatine phosphokinase, any grade (450 mg QD (n=12)): 1 (8.3) n (%) | TRAE Elevated creatine phosphokinase, grade 3-4 (450 mg QD (n=12)): 0 n (%) | TRAE Elevated serum urea, any grade (450 mg QD (n=12)): 0 n (%) | TRAE Elevated serum urea, grade 3-4 (450 mg QD (n=12)): 0 n (%) | TRAE Elevated troponin, any grade (450 mg QD (n=12)): 1 (8.3) n (%) | TRAE Elevated troponin, grade 3-4 (450 mg QD (n=12)): 0 n (%) | TRAE Genital rash, any grade (450 mg QD (n=12)): 0 n (%) | TRAE Genital rash, grade 3-4 (450 mg QD (n=12)): 0 n (%) | TRAE Haematuria, any grade (450 mg QD (n=12)): 3 (25.0) n (%) | TRAE Haematuria, grade 3-4 (450 mg QD (n=12)): 0 n (%) | TRAE Headache, any grade (450 mg QD (n=12)): 0 n (%) | TRAE Headache, grade 3-4 (450 mg QD (n=12)): 0 n (%) | TRAE Hyperhidrosis, any grade (450 mg QD (n=12)): 1 (8.3) n (%)

Reference: PMC10088252
